These results are taken from patent US8016810B2, “Transdermal delivery system for cosmetic agents” (TransPharma Medical Ltd., priority 2003, dated 2011).

Data set [1] can be described thus: In vitro skin permeation study, flow-through Franz diffusion cell, ViaDerm (micro-channel) treated vs intact skin. Type of data set: in vitro ADME, porcine. Conditions: for Total permeated amount: after 24 hr. As for the experimental part: The density of the microelectrode array was 100 microelectrodes/cm^2. […] The permeability of the cosmetic agents through porcine skin was measured in vitro with a flow-through Franz diffusion cell system (Laboratory Glass Apparatus, Berkeley, Calif.). […] Skin micro-channeling was performed in cells defined as VD (ViaDerm) application group, and then TEWL was measured again to control the operation. The skin pieces were placed on the receiver chambers with the stratum corneum facing upwards, and the donor chambers were clamped in place. […] Samples from the acceptor solutions were collected into tubes (using a fraction collector, Retriever IV, ISCO, Lincoln, Nebr., USA) at predetermined times for up to 24 hr period. The samples were kept at 4° C. until analyzed by HPLC. Samples from the acceptor solutions (10-50 μl) were injected into HPLC system (Waters) equipped with a pre-packed LiChrospher C18 column (150×3.9 mm, 5 μm; Waters), and a UV detector. […] The Salicylic acid samples were separated using an isocratic mobile phase containing 5% methanol 25% Acetonitrile and 0.01 mol/l KH2PO4/H3PO4 buffer pH 2.3 in H2O, at a flow rate 1 ml/min. The detection of salicylic acid was performed at a wavelength of 237 nm. […] The detection of hydroquinone was performed at a wavelength of 280 nm. […] The permeation efficacy is defined as the % of penetrated agent out of total amount of the agent applied on the skin.

The conditions of data set [2]: over a 4 to 6 month period, systemic; cited from earlier work.
The conditions of data set [3]: relative to hydroquinone; cited from earlier work.
Setting [4] is: ViaDerm treated skin, after 24 h, 0.25 ml solution in donor chamber.
Where [5] appears, read: ViaDerm treated skin, 0.25 ml solution in donor chamber.
Setting [6] is: after 3 h, 0.25 ml solution in donor chamber.
Where [7] appears, read: after 24 h, 0.25 ml solution in donor chamber.
Where [8] appears, read: control untreated skin, 0.25 ml solution in donor chamber.
The mark [9] stands for this setting: untreated skin, after 24 h, 0.25 ml solution in donor chamber.

As to `Cn1c(=O)c2c(ncn2C)n(C)c1=O` [caffeine], in data set [1] (ViaDerm pretreated skin, after 6 hours, 0.25 ml of 1% w/v aqueous solution), the “Caffeine flux (plateau)” value turned out to be 18.5 ± 2.2 µg/mL. In addition, the Permeation efficacy is on record as 37.1±4.8% in data set [1] (ViaDerm pretreated skin, after 16 hours, 0.25 ml of 1% w/v solution) and 3.6±2.6% in data set [1] (untreated skin, after 16 hours, 0.25 ml of 1% w/v solution). In addition, the “Permeation efficacy, ViaDerm in comparison to untreated skin” value in data set [1] (after 16 hours, 0.25 ml of 1% w/v solution) came to 10 fold. The Caffeine flux in data set [1] (control untreated skin, after 6 hours, 0.25 ml of 1% w/v aqueous solution) is 0.4 ± 0.3 µg/mL. Also, the “Cumulative permeability through ViaDerm treated skin compared to intact skin” value in data set [1] (result in words (FIGS. 1, 2, 4)) is on record as “enhanced”.

For `CC1=C(/C=C/C(C)=C/C=C/C(C)=C\C(=O)O)C(C)(C)CCC1` [isotretinoin], in data set [2], the “Acne cleared by treatment” value is reported as not above 85%.

Turning to `OC[C@H]1O[C@@H](Oc2ccc(O)cc2)[C@H](O)[C@@H](O)[C@@H]1O` [arbutin], in data set [3], the “Quantity required to achieve a similar skin whitening effect, compared to the quantity of hydroquinone used” value is on record as “over 100 times”.

For `O=C1O[C@H]([C@@H](O)CO)C(O)=C1O` [ascorbic acid], the “Quantity required to achieve a similar skin whitening effect, compared to the quantity of hydroquinone used” value in data set [3] is listed as 17 times.

`Oc1ccc(O)cc1` [hydroquinone]: the Permeation efficacy in data set [1] (setting [4]) came out at 27%; in data set [1] (setting [9]) it was 1%. Moreover, the values for the Total permeated amount in data set [1] (setting [5]) and in data set [1] (setting [8]) were 1824 μg/cm^2 and 62 μg/cm^2, respectively. For the same molecule, the “Difference in permeated amount, ViaDerm treated compared to untreated skin” value is on record as 39 fold in data set [1] (setting [6]) and 29 fold in data set [1] (setting [7]).

As for `O=C(O)c1ccccc1O` [salicylic acid], the Permeation efficacy is on record as 62% in data set [1] (setting [4]) and 4% in data set [1] (setting [9]). Moreover, the Total permeated amount in data set [1] (setting [5]) turned out to be 820 μg/cm^2; in data set [1] (setting [8]), 84 μg/cm^2. The “Difference in permeated amount, ViaDerm treated compared to untreated skin” value in data set [1] (setting [6]) came out at 17 fold; in data set [1] (setting [7]) it was 10 fold.
